Measured values as given in article PMC12552953, “SA-XV, a 15-amino acid fragment of host defense peptide S100A12, targets mitochondria and is protective against fungal infections” (The Journal of Biological Chemistry, 2025).
Read-outs that look alike come from different tables or passages of the source. Where no end group is shown, it is not given here.

Tests used:
[1] = system: T7 RNA polymerase, plasmid DNA; test: In vitro transcription assay; assay type: biochemical; details: 2 h, 37 °C, agarose gel
Description: In vitro transcription assay was done using the commercial kit Riboprobe System-T7 (Promega), according to the instructions for positive control samples but adding different concentrations of peptide to the reactions. As a negative control, the DNA template was omitted from the reaction mix. After 2 h of incubation at 37 °C, samples were run in a 1.2% agarose gel in TAE buffer and imaged using the Gel Doc System (Bio-Rad).

F. solani = test: Murine model of F. solani keratitis; details: 48 h postinfection; SA-XV at 0 and 6 h or 6 and 18 h, AmpB at 0 and 6 h
Description: C57BL/6 mice (6–8 weeks old) were anesthetized by intraperitoneal injection using ketamine (8.7 mg/ml) and xylazine (0.5 mg/ml) at a dose of 120 μl/g body weight. While anesthetized, the corneal epithelium was abraded with three parallel vertical and horizontal scratches with a 26-gauge needle, and F. solani (10^7 conidia in 2.5 μl) were added in one eye, whereas the fellow eye received 1× PBS (n = 5). […] One more group of mice (n = 5) was infected with F. solani followed by topical application of AmpB (5 μg) at 0 and 6 h postinfection. Mice were euthanized and examined under a stereomicroscope for density and area of corneal opacification or ulceration 48 h postinfection and photographed using a digital camera. Clinical scores for the opacity were determined in a blinded fashion according to the scale earlier reported ([90]), eyes were enucleated and homogenized using a tissue homogenizer (Ez-Lyzer; Genetix Biotech) in sterile 1× PBS, and homogenates were plated on PDA plates for determining CFUs.

[2] = peptide-free 41.6 ppm
Description: A single 90° pulse ^31P solid-state NMR experiment was performed on an Agilent NMR spectrometer (DD2) equipped with a 4 mm MAS HXY Solid Probe. Resonance frequencies were 699.88 MHz and 283.31 MHz for ^1H and ^31P, respectively. The TPPM ^1H-decoupled condition was used. LUVs were kept in a diameter of 4 mm Pyrex glass tube sealed with parafilm at an ambient temperature. ^31P spectra were collected with 512∼1000 scans and a recycle delay of 2 s. The spectra were referenced externally to 85% phosphoric acid (0 ppm).
^31P solid-state NMR experiments were performed using the Agilent NMR spectrometer (DD2) functioning at the resonance frequency of 283.31 MHz for ^31P and 699.88 MHz for ^1H, equipped with a 4 mm MAS HXY Solid Probe. MLVs were prepared by dissolving POPC, POPE, and ERG (5:4:3) in chloroform to obtain a stock of 5 mg/ml. The lipid mixtures were dried under nitrogen gas, lyophilized overnight followed by dissolving the lipid film in Tris buffer (pH 7.4), and hydrated for 1 h by vortexing occasionally and freeze–thawing five times. A single 90◦ pulse and 24 kHz TPPM proton decoupling were used. The π/2 pulse lengths were set at 6.8 μs for the ^31P nucleus. MLVs were kept in a 4 mm Pyrex glass tube, which was fit into the MAS probe, and sealed with parafilm. […] MestReNova software (version 8.1) with 250 Hz line broadening was used for spectra processing.

chorioallantoic membrane = system: chorioallantoic membrane; set-up: species or system hen
Description: (§1) Supplementary experimental procedures
Cell culture and in vitro scratch assay […]
SA-XV was added directly onto the chorioallantoic
M sodium hydroxide solution.

in vitro [3] = assay type: cell-based, human; details: human
Description: as §1
(§2) Cell culture and in vitro scratch assay
(§3) Aldrich, St. Louis, MO) as described earlier (3). In brief, cells (2x10^4 cells/well) were seeded into 96 well plates and cultured overnight. Cells were treated with different concentration of […]
(§4) reader SpectraMax M3 (Softmax Pro 6.3). […]

[4] = system: human corneal epithelial cells (HCEC); test: in vitro; assay type: cell-based
Description: as §1, §2, §3, §4

[5] = system: Fusarium spp. ocular clinical isolates; assay type: cell-based; details: 48 h
Description: (§5) The ocular clinical isolates of F. solani (n = 5) and C. albicans (n = 5) were obtained from Jhaveri Microbiology Centre, LVPEI, India. The isolates were grown at 29 °C in Sabouraud dextrose broth (SDB; Himedia) for 48 h. Fusarium conidia (spores) were harvested as described before ([69]), centrifuged at 8000 rpm for 15 min to pellet the conidia, washed in 10 mM phosphate buffer (pH 7.4) twice, and resuspended in the same. Candida was grown in SDB overnight, centrifuged, washed, and resuspended similarly. F. solani and C. albicans (1 × 10^4 conidia) were grown in the presence or absence of different concentrations of SA-XV in SDB in a 96-well microtiter plate and incubated at 29 °C for 24 h. Negative controls consisting of fungus only and a positive control consisting of fungus treated with AmpB (55 μM) were incubated simultaneously. The culture was then diluted accordingly and plated in potato dextrose agar (PDA) plates and incubated further for 24 h. The effect of the peptide was determined by quantifying the CFUs on the PDA plates. The effect of SA-XV on A. flavus was also determined similarly. All the experiments were performed at least thrice and in triplicate.

Fusarium solani = assay type: cell-based; details: 48 h
Description: as §5

Candida albicans = assay type: cell-based; details: 48 h
Description: as §5

[6] = system: peripheral blood mononuclear cells (PBMC); assay type: cell-based
Description: as §1, §2, §3, §4

[7] = system: sinonasal epithelial cells (SNEC); assay type: cell-based
Description: as §1, §2, §3, §4

C. albicans = assay type: cell-based, Candida albicans
Description: Fusarium spp. or Candida spp. (1 × 10^4 conidia) were incubated with 60 μM of FITC-SA-XV at 4 °C or 29 °C or different time points in SDB. The conidia were then washed three times with Milli-Q water and fixed using 4% paraformaldehyde. In some experiments, DAPI (Vectashield) or MitoTracker (Invitrogen) were used to stain specific cell organelles. In a different experiment, cytochrome c was detected in peptide-treated or untreated cells by incubating with anti–cytochrome c antibody (1:100 dilution; BioLegend), followed by Alexa Fluor 488 secondary antibody (1:1000 dilution; Thermo Fisher Scientific). In a separate experiment, the spores were incubated with SA-XV for 4 h in the presence or absence of FD (SR LifeScience Solution) of different molecular weights, washed with Milli-Q water, and fixed using 4% paraformaldehyde. The conidia were imaged using a 63× objective in a confocal microscope (LSM 880; Zeiss).

[8] = n = 3
C. albicans biofilm = assay type: cell-based, Candida albicans; details: 24 h, 60 μM
[9] = increased concentration of SA-XV
Description: Fungal model membrane mimics composing 5:4:3 POPC/POPE/ERG were created following the standard protocol. […] The lipid film was created after drying in a stream of nitrogen gas and lyophilizing overnight. The lipid film was then hydrated with 70 mM calcein dissolved in 10 mM Tris buffer (pH 7.4), followed by vigorous vortexing for 30 min and subjecting to five freeze–thaw cycles in liquid nitrogen and lukewarm water to obtain the dye-entrapped vesicles. The vesicles were then passed through a 100-nm polycarbonate membrane filter stacked in a mini extruder (Avanti Polar Lipids) set up to obtain LUVs. […]
Dye-encapsulated liposomes were suspended in an extravesicular buffer containing 10 mM Tris buffer and 100 mM NaCl (pH 7.4). The leakage of calcein caused by liposome disruption was analyzed by fluorescence emission at 519 nm using a JASCO F-8500 fluorescence spectrophotometer. […] S100A12 was added at functional concentrations, and enhancement in fluorescence was measured. […] Percentage leakage was calculated using the equation. […]
where, F0, F, and FT denote the basal fluorescence intensity, fluorescence intensity after addition of peptides, and maximum fluorescence intensity obtained after addition of 0.1% Triton X-100, respectively.

[10] = system: C. albicans ocular clinical isolates; assay type: cell-based, Candida albicans; details: 48 h
Description: as §5

in vitro [11] = details: 25% fetal bovine serum in RPMI media
Description: mentioned previously (5).
supplemented with 25% FBS at 37 °C for 15 min. 100 µl aliquots were taken at different time
intervals (0, 30, 60, 120, 180, and 240 min). 200 µl of 96% ethanol was added to precipitate the
serum followed by centrifugation at 12000 x g for 2 min. 20 µl of the supernatant was subjected
to a LC-20AT reverse phase HPLC system (SHIMADZU, Japan) equipped with Phenomenix
C18 column (250x10 mm, pore size 100 Å, particle size 5 µm), at room temperature, using
acetonitrile and water with 0.1 % TFA as the solvents. A flow rate of 1ml/min was maintained.
The percentage of peptide remaining in the supernatant at different time intervals were analysed
by peak integration using SPINCHROME CFR software, and the area obtained was normalized with respect to the free peptide.

Molecule | RNA synthesis in vitro [1] | corneal opacification (F. solani) | chemical shift anisotropy span ([2]; 1 mol% peptide) | chemical shift anisotropy span ([2]; 3 mol% peptide) | irritation effect (chorioallantoic membrane) | IC50 at 24 h (in vitro [3]) | cytotoxicity [4] | penetration into HCECs (HCECs) | % Growth Inhibition by SA-XV (60 μM) [5] | MIC90 (Fusarium solani) | MIC90 (Candida albicans) | cytotoxicity [6] | cytotoxicity [7] | translocation into fungal cells (C. albicans) | histopathology of corneal sections [8] | corneal findings ([8]; peptide four times at 3 h interval for 2 days, no edema or hyperemia) | inhibition of biofilm formation (C. albicans biofilm) | dye leakage from fungal-membrane liposomes [9] | % Growth Inhibition by SA-XV (60 μM) [10] | half-life at 1 mg/ml (in vitro [11])
C[C@@H]1[C@H](O)[C@@H](C)/C=C/C=C/C=C/C=C/C=C/C=C/C=C/[C@H](O[C@@H]2O[C@H](C)[C@@H](O)[C@H](N)[C@@H]2O)C[C@@H]2O[C@](O)(C[C@@H](O)C[C@@H](O)[C@H](O)CC[C@@H](O)C[C@@H](O)CC(=O)O[C@H]1C)C[C@H](O)[C@H]2C(=O)O [AmpB, amphotericin B] | did not show any appreciable effect | Distinct reduced opacification |  |  |  |  |  |  |  |  |  |  |  |  |  |  |  |  |  | 
VAIALKAAHYHTHKE [SA-XV] |  |  | 44.6 ppm | 46.4 ppm | nonirritant | 302 µM | did not show any substantial cytotoxicity | to some extent | 99.99% | 15 µM | 15 µM | did not show any substantial cytotoxicity | did not show any substantial cytotoxicity | translocates | no damages or abnormalities | no corneal erosions or opacity | more than 70% | Increased dye leakage | 99.99% | > 180 min
